Assay results as given in patent publication US11680885B2, “Method, process, composition and kit for measuring concentration of molecules dissolved in the continuous phase of a colloid” (UNIVERSIDAD TÉCNICA FEDERICO SANTA MARÍA, priority 2017, dated 2023).

Assay: Measurement of concentration of molecules dissolved in the continuous phase of the standard AuNP@MUA colloid (centrifugation, RP-HPLC with UV-visible detection)
Type: physicochemical
Conditions: n=3; for concentration in the control samples, equivalent to the continuous phase of the colloid: control samples: particle-free solution extracted from the colloid, 2.00 μM molecule added; for concentration of molecules dissolved in the continuous phase of the standard AuNP@MUA colloid: test samples, after incorporating 2.00 μM of the molecule into the colloid, centrifuged 24,000×g 15 min, average
Procedure: In general terms, the concentration of molecules dissolved in a fraction of the particle free colloid is measured. To evaluate this, in a first part the method obtains a test sample and a control sample. The test sample contains molecules dissolved in a colloid, and the control sample contains the same concentration of molecules dissolved in a particle-free solution extracted from the same colloid used to obtain the test sample. […] Subsequently, the samples are exposed to a condition that allows the particles of the test sample to be concentrated. […] Then, a particle-free volume is recovered from the test sample. The fraction recovered is equivalent to the continuous phase of the colloid and includes the effect of the interaction between molecules and particles. Finally, the concentration of molecules dissolved in the continuous phase of the colloid is measured using equation 1:
[formula] where [FC] corresponds to the concentration of molecules dissolved in the continuous phase of a colloid, [ ]0 corresponds to the value of the concentration of molecules used during the sampling steps, @mp corresponds to the empirical value of a parameter proportional to the number of molecules contained in a volume of particle-free test sample, and @mc corresponds to the empirical value of the same parameter proportional to the number of molecules contained in a volume of control sample. The concentration value obtained from this equation is equivalent to the concentration of molecules dissolved in the continuous phase of the colloid. […]
[formula] • where [FC] corresponds to the concentration of molecules dissolved in the continuous phase of a colloid, [ ]0 corresponds to the value of the concentration of molecules used during the sampling steps, @mp corresponds to the empirical value of a parameter proportional to the number of molecules contained in a volume of particle-free test sample obtained in step f), and @mc corresponds to the empirical value of the same parameter, but measured in the control sample obtained in step g).

| concentration in the control samples, equivalent to the continuous phase of the colloid [nM] | concentration of molecules dissolved in the continuous phase of the standard AuNP@MUA colloid [nM] | Compound |
| --- | --- | --- |
| 2000 | 1170 | CN(C)c1ccc2nc3ccc(=[N+](C)C)cc-3sc2c1 [methylene blue] |
| 2000 | 2000 | CN(C)c1ccc(N=Nc2ccc(S(=O)(=O)[O-])cc2)cc1.[Na+] [methyl orange] |
